According to patent US10730858B2, “Lactam, cyclic urea and carbamate, and triazolone derivatives as potent and selective rock inhibitors” (BRISTOL-MYERS SQUIBB COMPANY, priority 2016, dated 2020):

molecular target: ROCK2 (Homo sapiens, UniProt O75116); assay: ROCK2 assay (Caliper LABCHIP peptide phosphorylation, kinase inhibition); type: biochemical; settings: 5 μM ATP, 1.5 μM peptide substrate
Protocol: The effectiveness of compounds of the present invention as ROCK inhibitors can be determined in a 30 μL assay containing 20 mM HEPES, pH 7.5, 20 mM MgCl2, 0.015% Brij-35, 4 mM DTT, 5 μM ATP and 1.5 μM peptide substrate (FITC-AHA-AKRRRLSSLRA-OH) (SEQ ID NO. 1). Compounds were dissolved in DMSO so that the final concentration of DMSO was <2%, and the reaction was initiated with Rho kinase variants. After incubation, the reaction was terminated by the addition of EDTA and the phosphorylated and non-phosphorylated peptides separated using a LABCHIP® 3000 Reader (Caliper Life Sciences). […] Compounds were tested in dose-response format, and the inhibition of kinase activity was calculated at each concentration of compound. The inhibition data were fit using a curve-fitting program to determine the IC50; i.e., the concentration of compound required to inhibit 50% of kinase activity.
Representative Examples were tested in the ROCK2 assay described above and found having ROCK2 inhibitory activity. The ranges of the ROCK2 IC50 values are as follows: ROCK2 IC50: ++++ (<10 nM) +++ (10-100 nM) ++ (100-500 nM) + (500-2000 nM)

Chain of ROCK2 (O75116 whole entry, species assumed): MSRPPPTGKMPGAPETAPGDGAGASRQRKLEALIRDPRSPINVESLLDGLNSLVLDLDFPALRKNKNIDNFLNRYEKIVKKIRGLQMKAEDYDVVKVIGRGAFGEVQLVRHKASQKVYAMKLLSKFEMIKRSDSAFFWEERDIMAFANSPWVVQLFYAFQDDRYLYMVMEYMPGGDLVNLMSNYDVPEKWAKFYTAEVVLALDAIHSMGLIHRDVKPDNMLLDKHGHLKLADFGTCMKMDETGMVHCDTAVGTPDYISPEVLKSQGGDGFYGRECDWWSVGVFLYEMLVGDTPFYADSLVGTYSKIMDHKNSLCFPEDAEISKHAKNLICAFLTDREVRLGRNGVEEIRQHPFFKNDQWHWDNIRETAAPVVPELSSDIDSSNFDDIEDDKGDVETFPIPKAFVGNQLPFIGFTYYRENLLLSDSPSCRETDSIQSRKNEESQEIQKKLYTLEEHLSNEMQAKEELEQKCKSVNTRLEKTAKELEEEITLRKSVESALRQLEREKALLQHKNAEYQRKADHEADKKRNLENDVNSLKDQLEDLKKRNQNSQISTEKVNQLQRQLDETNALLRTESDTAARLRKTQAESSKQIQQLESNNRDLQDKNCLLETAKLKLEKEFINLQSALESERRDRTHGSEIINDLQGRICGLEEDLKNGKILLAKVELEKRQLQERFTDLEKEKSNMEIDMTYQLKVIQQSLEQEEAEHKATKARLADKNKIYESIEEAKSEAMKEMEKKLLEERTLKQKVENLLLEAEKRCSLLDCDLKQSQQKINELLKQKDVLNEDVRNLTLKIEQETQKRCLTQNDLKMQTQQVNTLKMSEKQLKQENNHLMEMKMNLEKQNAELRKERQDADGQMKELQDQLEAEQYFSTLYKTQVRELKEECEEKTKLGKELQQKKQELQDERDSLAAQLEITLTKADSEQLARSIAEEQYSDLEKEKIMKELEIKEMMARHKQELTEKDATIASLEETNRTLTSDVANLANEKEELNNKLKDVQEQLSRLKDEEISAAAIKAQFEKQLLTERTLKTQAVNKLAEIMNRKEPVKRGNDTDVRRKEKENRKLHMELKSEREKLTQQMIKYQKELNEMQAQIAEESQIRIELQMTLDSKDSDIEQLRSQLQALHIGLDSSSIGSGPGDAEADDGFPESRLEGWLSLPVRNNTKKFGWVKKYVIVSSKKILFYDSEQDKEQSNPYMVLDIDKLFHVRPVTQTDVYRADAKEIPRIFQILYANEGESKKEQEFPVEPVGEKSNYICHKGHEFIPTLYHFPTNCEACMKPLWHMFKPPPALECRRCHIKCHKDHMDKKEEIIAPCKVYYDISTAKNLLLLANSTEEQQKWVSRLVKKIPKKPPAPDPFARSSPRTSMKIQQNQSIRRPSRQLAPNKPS

`O=C1C(NC2Cc3ccccc3C2)CCN1c1ccc(-c2n[nH]c(=O)c3ccccc23)cc1` (centres unmarked) [Example 29, 4-(4-{3-[(2,3-dihydro-1H-inden-2-yl)amino]-2-oxopyrrolidin-1-yl}phenyl)-1,2-dihydrophthalazin-1-one] and `O=C1C(NCc2ccccc2)CCN1c1ccc(-c2n[nH]c(=O)c3ccccc23)cc1` (centres unmarked) [Example 25, 4-{4-[3-(benzylamino)-2-oxopyrrolidin-1-yl]phenyl}-1,2-dihydrophthalazin-1-one] fall in the same range of IC50: 500 to 2000 nM for the first, 500 to 2000 nM for the second.

First: O=c1n(Cc2ccccc2)cnn1-c1ccc(-c2n[nH]c(=O)n3cccc23)cc1 [Example 47, 4-benzyl-1-(4-{4-oxo-3H,4H-pyrrolo[1,2-d][1,2,4]triazin-1-yl}phenyl)-4,5-dihydro-1H-1,2,4-triazol-5-one]
Second: O=c1[nH]nc(-c2ccc(-n3ncn(Cc4cccc(F)c4)c3=O)cc2)c2ccccc12 [Example 53, 4-(4-{4-[(3-fluorophenyl)methyl]-5-oxo-4,5-dihydro-1H-1,2,4-triazol-1-yl}phenyl)-1,2-dihydrophthalazin-1-one]
The IC50 of the first is higher: 500 to 2000 nM for the first, 100 to 500 nM for the second.

`O=C1C(Nc2cccc(OC(F)(F)F)c2)CCN1c1ccc(-c2n[nH]c(=O)c3ccccc23)cc1` (centres unmarked) [Example 52, 4-[4-(2-oxo-3-{[3-(trifluoromethoxy)phenyl]amino}pyrrolidin-1-yl)phenyl]-1,2-dihydrophthalazin-1-one] and `O=C1C(Oc2cccc(OC(F)(F)F)c2)CCN1c1ccc(-c2n[nH]c(=O)c3ccccc23)cc1` (single isomer, unassigned) [Example 85, 4-(4-{2-oxo-3-[3-(trifluoromethoxy)phenoxy]pyrrolidin-1-yl}phenyl)-1,2-dihydrophthalazin-1-one] cannot be ordered by IC50: less than 10 nM for the first, less than 10 nM for the second.

First: O=C1C(C(=O)N2CCc3ccccc32)CCN1c1ccc(-c2n[nH]c(=O)c3ccccc23)cc1 (centres unmarked) [Example 3, 4-{4-[3-(2,3-dihydro-1H-indole-1-carbonyl)-2-oxopyrrolidin-1-yl]phenyl}-1,2-dihydrophthalazin-1-one]
Second: O=C1C(c2ccccc2)CCN1c1ccc(-c2n[nH]c(=O)c3ccccc23)cc1 (centres unmarked) [Example 1, 4-[4-(2-oxo-3-phenylpyrrolidin-1-yl)phenyl]-1,2-dihydrophthalazin-1-one]
The IC50 of the first is higher: 500 to 2000 nM for the first, 100 to 500 nM for the second. The second is the more potent here.

First: CCCC1CN(c2ccc(-c3n[nH]c(=O)c4ccccc34)cc2)C(=O)O1 (centres unmarked) [Example 17, 4-[4-(2-oxo-5-propyl-1,3-oxazolidin-3-yl)phenyl]-1,2-dihydrophthalazin-1-one]
Second: CC(C)(C)OC(=O)NCC1CN(c2ccc(-c3n[nH]c(=O)c4ccccc34)cc2)C(=O)O1 (centres unmarked) [Example 16, tert-butyl N-({2-oxo-3-[4-(4-oxo-3,4-dihydrophthalazin-1-yl)phenyl]-1,3-oxazolidin-5-yl}methyl)carbamate]
The IC50 of the first is lower: 100 to 500 nM for the first, 500 to 2000 nM for the second. The first is the more potent here.

`Cn1nc(C2CC2)cc1NC1CCN(c2ccc(-c3n[nH]c(=O)c4ccccc34)cc2)C1=O` (centres unmarked) [Example 35, 4-(4-{3-[(3-cyclopropyl-1-methyl-1H-pyrazol-5-yl)amino]-2-oxopyrrolidin-1-yl}phenyl)-1,2-dihydrophthalazin-1-one] and `COc1cc(F)cc(NC2CCN(c3ccc(-c4n[nH]c(=O)c5ccccc45)cc3)C2=O)c1` (centres unmarked) [Example 32, 4-(4-{3-[(3-fluoro-5-methoxyphenyl)amino]-2-oxopyrrolidin-1-yl}phenyl)-1,2-dihydrophthalazin-1-one] fall in the same range of IC50: 10 to 100 nM for the first, 10 to 100 nM for the second.

First: Cc1nc2ccc(NC3CCN(c4ccc(-c5n[nH]c(=O)c6ccccc56)cc4)C3=O)cc2s1 (single isomer, unassigned) [Example 80, 4-(4-{3-[(2-methyl-1,3-benzothiazol-6-yl)amino]-2-oxopyrrolidin-1-yl}phenyl)-1,2-dihydrophthalazin-1-one]
Second: COc1cc(NC2CCN(c3ccc(-c4n[nH]c(=O)c5ccccc45)cc3)C2=O)ccc1F (centres unmarked) [Example 42, 4-(4-{3-[(4-fluoro-3-methoxyphenyl)amino]-2-oxopyrrolidin-1-yl}phenyl)-1,2-dihydrophthalazin-1-one]
The IC50 of the first is lower: less than 10 nM for the first, 10 to 100 nM for the second. The first is the more potent here.

`N#Cc1ccnc(NC2CCN(c3ccc(-c4n[nH]c(=O)c5ccccc45)cc3)C2=O)c1` (centres unmarked) [Example 74, 2-({2-oxo-1-[4-(4-oxo-3,4-dihydrophthalazin-1-yl)phenyl]pyrrolidin-3-yl}amino)pyridine-4-carbonitrile] and `Cc1nc2ccc(NC3CCN(c4ccc(-c5n[nH]c(=O)c6ccccc56)cc4)C3=O)cc2s1` (single isomer, unassigned) [Example 81, 4-(4-{3-[(2-methyl-1,3-benzothiazol-6-yl)amino]-2-oxopyrrolidin-1-yl}phenyl)-1,2-dihydrophthalazin-1-one] fall in the same range of IC50: 10 to 100 nM for the first, 10 to 100 nM for the second.

`COc1cc(NC2CCN(c3ccc(-c4n[nH]c(=O)c5ccccc45)cc3)C2=O)ccc1N1CCOCC1` (centres unmarked) [Example 49, 4-[4-(3-{[3-methoxy-4-(morpholin-4-yl)phenyl]amino}-2-oxopyrrolidin-1-yl)phenyl]-1,2-dihydrophthalazin-1-one] and `COc1cc(NC2CCN(c3ccc(-c4n[nH]c(=O)c5ccccc45)cc3)C2=O)ccc1N1CCN(C)CC1` (centres unmarked) [Example 48, 4-[4-(3-{[3-methoxy-4-(4-methylpiperazin-1-yl)phenyl]amino}-2-oxopyrrolidin-1-yl)phenyl]-1,2-dihydrophthalazin-1-one] fall in the same range of IC50: 10 to 100 nM for the first, 10 to 100 nM for the second.

Compared with `O=C1C(NCCc2ccccc2)CCN1c1ccc(-c2n[nH]c(=O)c3ccccc23)cc1` (centres unmarked) [Example 45, 4-(4-{2-oxo-3-[(2-phenylethyl)amino]pyrrolidin-1-yl}phenyl)-1,2-dihydrophthalazin-1-one], `O=C1N(Cc2ccccc2)CCN1c1ccc(-c2n[nH]c(=O)c3ccccc23)cc1` [Example 10, 4-[4-(3-benzyl-2-oxoimidazolidin-1-yl)phenyl]-1,2-dihydrophthalazin-1-one] is lower in IC50: 500 to 2000 nM for the first, 10 to 100 nM for the second. The second is the more potent here.

`O=C1C(Nc2ccc3c(c2)OCCO3)CCN1c1ccc(-c2n[nH]c(=O)c3ccccc23)cc1` (centres unmarked) [Example 50, 4-(4-{3-[(2,3-dihydro-1,4-benzodioxin-6-yl)amino]-2-oxopyrrolidin-1-yl}phenyl)-1,2-dihydrophthalazin-1-one] and `CS(=O)(=O)c1cccc(NC2CCN(c3ccc(-c4n[nH]c(=O)c5ccccc45)cc3)C2=O)c1` (centres unmarked) [Example 67, 4-(4-{3-[(3-methanesulfonylphenyl)amino]-2-oxopyrrolidin-1-yl}phenyl)-1,2-dihydrophthalazin-1-one] fall in the same range of IC50: 10 to 100 nM for the first, 10 to 100 nM for the second.

`O=C1C(Nc2cnn(-c3ccccc3)c2)CCN1c1ccc(-c2n[nH]c(=O)c3ccccc23)cc1` (centres unmarked) [Example 39, 4-(4-{2-oxo-3-[(1-phenyl-1H-pyrazol-4-yl)amino]pyrrolidin-1-yl}phenyl)-1,2-dihydrophthalazin-1-one] and `O=C1C(Nc2ccc(OC(F)F)cc2)CCN1c1ccc(-c2n[nH]c(=O)c3ccccc23)cc1` (centres unmarked) [Example 60, 4-[4-(3-{[4-(difluoromethoxy)phenyl]amino}-2-oxopyrrolidin-1-yl)phenyl]-1,2-dihydrophthalazin-1-one] fall in the same range of IC50: 10 to 100 nM for the first, 10 to 100 nM for the second.

Compared with `COc1cc(OC2CCN(c3ccc(-c4n[nH]c(=O)c5ccccc45)cc3)C2=O)ccc1F` (centres unmarked) [Example 88, 4-{4-[3-(4-fluoro-3-methoxyphenoxy)-2-oxopyrrolidin-1-yl]phenyl}-1,2-dihydrophthalazin-1-one], `O=C1C(Oc2cccc(OC(F)(F)F)c2)CCN1c1ccc(-c2n[nH]c(=O)c3ccccc23)cc1` (racemic) [Example 73, 4-(4-{2-oxo-3-[3-(trifluoromethoxy)phenoxy]pyrrolidin-1-yl}phenyl)-1,2-dihydrophthalazin-1-one] is lower in IC50: 10 to 100 nM for the first, less than 10 nM for the second.
